# Results reported in publication PMC2731040 (BMC Clinical Pharmacology, 2009).
# Entries after “also recorded” stand apart in the source; their conditions may differ.
# How the values were obtained:
# [1] = Plasma pharmacokinetics of cocaine and benzoylecgonine after IV cocaine-d5 infusion; conditions: for Cmax: cocaine-d5 IV 0.5 mg/kg over 10 min then 2 mg/kg over 4 h; for Cmax / (t1/2)z / AUC (0-∞) / AUC(0-t) / AUCext / Tmax / λz: mean ± SD
# Experimental: In this open-label, unblinded study, a 0.5 mg/kg intravenous loading dose of cocaine-d5 HCl over 10 minutes was followed by a slow 4 hour constant rate cocaine-d5 infusion of 2.0 mg/kg(~175 mg for a 70 kg person). […] When this method of cocaine administration is utilized, a larger dose can be given over a longer period of time and approximates frequently reported patterns of cocaine use. This method also allowed for close monitoring and termination of the infusion if untoward psychiatric or cardiovascular effects occurred.
# For both cocaine infusions (sessions 1 and 2), plasma samples for cocaine and metabolites (~6 ml) were obtained 5 minutes before and 10 minutes, 0.5, 1, 1.5, 2, 4, 4.25, 4.5, 5, 6, 8, 12, 21, 27, 33, and 45 hours after each cocaine infusion.
# Plasma concentrations of cocaine and benzoylecgonine were measured in our laboratory using a method we developed. The method allows for simultaneous determination of cocaine, benzoylecgonine, and deuterium-labeled analogs [cocaine-d5 and benzoylecgonine-d5 (BE-d5)] by using combined gas chromatography-mass spectrometry (GC-MS). Differently labeled stable isotope analogs were used as internal standards. The calibration curves were from 5 to 2,000 ng/mL for cocaine-d5 and 10 to 2,000 ng/mL for BE-d5. Lower limits of quantitation (LLOQ) were 5 ng/ml (cocaine-d5) and 10 ng/ml (BE-d5) in plasma. Qualitative urine benzoylecgonine was measured by Northwest Toxicology Laboratory, Salt Lake City, Utah, using the Roche Diagnostics Online® immunoassay.
# The plasma concentration-time profiles for cocaine and benzoylecgonine (BE) were analyzed by non-compartmental methods, utilizing the pharmacokinetic data analysis program WinNonlin Pro, version 3.0 [31].
# The area under the plasma concentration-time curve was calculated using the linear trapezoidal rule up to the maximum plasma concentration, and thereafter using the logarithmic trapezoidal rule to the last measurable plasma concentration. The remaining area was extrapolated to infinity by dividing the last appropriate plasma concentration by the terminal exponential rate constant.
# Maximum plasma concentration (Cmax) and time of maximum plasma concentration (Tmax) were determined by visual inspection of data. "Terminal" exponential half-life [(t1/2)z] was calculated from log-linear regression of "terminal" exponential phase data points. Cocaine clearance (CL) and terminal exponential volume of distribution (Vz) were calculated by conventional equations: CL = [Dose/Area under the curve (AUC)0-∞] and Vz = CL/λz, respectively, where λz ("terminal" exponential rate constant) = ln2/(t1/2)z. […] Amount of BE in urine samples was calculated by multiplying concentration by volume.
# [2] = Selegiline and metabolites excreted in 24 hour urine collections; type: in vivo, human; set-up: unit not given here; conditions: Mean ± SD, N = 12
# Experimental: (§1) When subjects were in the GCRC, all urine was collected and volumes recorded. Following each cocaine infusion, urine was collected in fractions from 0 to 24, 24 to 48, and 48 to 72 hours (timed from the start of the infusion). Samples were then frozen at -70°C until analyzed. […] A qualitative screen for drugs of abuse was obtained every other day for the entire study period.
# (§2) All analyses employed a one-factor repeated-measures analysis of variance (ANOVA), with all parameters analyzed as their logarithmic (natural) transforms. If a day effect was found between days 9, 11, 12, and 13, a Tukey multiple comparison procedure was employed posthoc to compare the days in pairs. A test for linear trend was included. All probability estimates presented are based on the Type III sums of squares.
# [3] = test system: nondependent cocaine-experienced subjects; assay: Physiologic measures during cocaine challenge sessions; type: in vivo, human; conditions: session 2 vs session 1; peak effects and effects across time
# Experimental: Heart rate, systolic and diastolic blood pressure were measured using a cardiovascular monitor (Dinamap by Critikon, Vital Signs Monitor 1846 SX). Rate pressure product was calculated as the product of systolic blood pressure and heart rate. Respiration rate was measured by counting the number of inhalations per minute. These vital signs were determined with the patient in a supine position for at least 10 minutes.
# (§3) Heart rate, blood pressure, respiration rate, skin and core temperature were recorded at specific times during the study. During infusions, measures were obtained pre-dose and at 0.17, 0.5, 0.75, 1, 1.5, 2, 2.5, 3, 3.5, 4, 4.25, 4.5, 5, 6, 8, 12, 18, 24, 36, 48, and 72 hours after dosing. The electrocardiogram was monitored continuously during the infusion and for 4 hours after the termination of the intravenous cocaine infusion. EKG tracings were recorded at each data collection point.
# (§4) The time courses of physiologic and subjective data were analyzed by repeated measures analysis of variance (ANOVA). Treatment conditions (Sessions 1 and 2) and observation times (hours post-dose) were considered within-subject factors. Change scores (post-dose minus pre-dose values) were used in most analyses. Raw score were used where indicated. After a significant F test, pairwise comparisons of treatment conditions were performed using the least squares means analysis. Peak effects within a session were determined for each subject and each variable and analyzed using a one-factor repeated measures ANOVA. Effects were considered statistically significant at p = 0.05. Data were adjusted for sphericity using the Huynh-Feldt adjustment factor. Huynh-Feldt-corrected significance values are reported.
# [4] = test system: nondependent cocaine-experienced subjects; assay: Subjective measures (verbal ratings, visual analog scales, POMS) during cocaine challenge sessions; type: in vivo, human
# Text: Verbal ratings of global intoxication and craving (on a scale of 0 to 100) were obtained at the same time points as the physiologic measures, with 0 representing no drug effect and 100 representing the highest level of intoxication or craving.
# Visual analog scales were used to rate the degree of drug liking by moving an arrow along a 10 cm line marked at opposite ends as 0 (not at all) and 100 (extreme) using a hand-held computer (Tandy 102). Items rated on the visual analog scale included "good drug effect" and "bad drug effect," and were obtained prior to cocaine infusion and at 0.17, 0.5, 0.75, 1, 1.5, 2, 2.5, 3, 3.5, 4, 4.25, 4.5, 5, 6, and 8 hours after dosing.
# The Profile of Mood States (POMS) assessed mood changes in Anger, Confusion, Fatigue, Tension, and Vigor on a scale from 0 to 4, where 0 indicated "no effect" and 4 indicates "extremely strong". Ratings were obtained prior to cocaine infusion and at 1, 3, and 6 hours after dosing.
# as §4
# noradrenergic tone = assay: Urinary MHPG-S excretion (surrogate for noradrenergic tone, MAO-A metabolite); type: in vivo, human
# Text: The interactions between MAO-A inhibitors and cocaine administered are largely unexplored. […] Therefore, measurement of dopaminergic and noradrenergic tone may be important in predicting toxic events. We measured dopaminergic tone with the surrogate marker of plasma HVA, the major brain metabolite of dopamine, and serum levels of prolactin, a hormone whose secretion is inhibited by dopamine. The surrogate for noradrenergic tone was urine concentrations of MHPG-S. In order to assess the degree of MAO-A and MAO-B inhibition, we assayed concentrations of a substrate of MAO-B, phenylethylamine (PEA). PEA would be expected to increase with MAO-B inhibition, and concentrations of MHPG-S, which is a metabolite of norepinephrine produced by MAO-A primarily in the brain [20], would be expected to decrease.
# as §1
# Concentrations of MHPG-S in urine were determined using LC-MS/MS [29]. […] As urinary creatinine excretion is directly related to glomerular filtration and renal blood flow, and urinary creatinine excretion is relatively constant (~1 gm/day), it can be used to estimate concentrations of a substance during a 24 hour urine collection period. Using ratios of the concentrations of MHPG-S to creatinine obtained from assays of these spot urine samples, MGPG-S concentrations during the outpatient period (when subjects would be unlikely to provide accurate 24 hour urine collections) were compared to those from urine samples on inpatient days.
# [5] = test system: nondependent cocaine-experienced subjects; assay: Adverse events and cardiovascular safety monitoring; type: in vivo, human; conditions: STS 6 mg/24 hours
# Experimental: as §3
# [6] = Trough plasma concentrations of selegiline and metabolites; type: in vivo, human; conditions: days 9, 11, 12, and 13 of STS; p for linear trend <0.001 (l-methamphetamine) and <0.01 (l-amphetamine)
# Text: as §2
# [7] = Pre Selegiline (session 1), plasma
# [8] = With Selegiline (session 2), plasma
# [9] = 0–24 hours after cocaine (day 11), STS 6 mg/24 hours
# [10] = 24–48 hours after cocaine (day 12), STS 6 mg/24 hours
# [11] = 48–72 hours after cocaine (day 13), no patch applied at 9 AM on day 14
smiles,measurement,setting,value
"CN1[C@H]2CC[C@@H]1[C@@H](C(=O)O)[C@@H](OC(=O)c1ccccc1)C2 [Benzoyl-ecgonine, benzoylecgonine]",Cmax,[1]; [7],1045 ± 180 ng/mL
same,(t1/2)z,[1]; [7],8.63 ± 5.36 h
same,AUC (0-∞),[1]; [7],13600 ± 3820 ng·h/mL
same,AUC(0-t),[1]; [7],13000 ± 3030 ng·h/mL
same,AUCext,[1]; [7],3.45 ± 6.45%
same,Tmax,[1]; [7],4.79 ± 0.50 h
same,λz,[1]; [7],0.0928 ± 0.023 h⁻¹
same,(t1/2)z,[1]; [8],7.52 ± 1.82 h
same,AUC (0-∞),[1]; [8],13200 ± 4180 ng·h/mL
same,AUC(0-t),[1]; [8],12900 ± 3760 ng·h/mL
same,AUCext,[1]; [8],2.21 ± 2.24%
same,Tmax,[1]; [8],5.04 ± 0.65 h
same,λz,[1]; [8],0.0971 ± 0.024 h⁻¹
same,Cmax,"[1]; With Selegiline (session 2, after one week STS 6 mg/24 hours), plasma",957 ± 184 ng/mL
same,BE AUC relative to that of cocaine,"[1]; plasma, after IV cocaine-d5 infusion",approximately 5.9 times
"C#CCNC(C)Cc1ccccc1 (centres unmarked) [Desmethylselegiline, n-desmethylselegiline]",Excreted in the 24 Hour Urine,[2]; [9],0.184 ± 0.128
same,Excreted in the 24 Hour Urine,[2]; [10],0.188 ± 0.162
same,Excreted in the 24 Hour Urine,[2]; [11],0.082 ± 0.086
"C#CCN(C)[C@H](C)Cc1ccccc1 [Selegiline, selegiline]",Effect of selegiline on cocaine or BE plasma pharmacokinetics,"[1]; after removal of the two outliers, STS 6 mg/24 hours for one week",No effect
same,Excreted in the 24 Hour Urine,[2]; [9],0.109 ± 0.073
same,Excreted in the 24 Hour Urine,[2]; [10],0.145 ± 0.138
same,Excreted in the 24 Hour Urine,[2]; [11],0.063 ± 0.097
same,Effect of selegiline on cocaine-induced physiological effects,[3],Neither peak effects (Table 3) nor physiological effects across time were affected
same,"Verbal ratings of craving, second session vs first","[4]; between 1.5 and 4.5 hours after cocaine, condition × time significant",lower
same,"POMS anger, tension and total score scales across time, second session vs first",[4]; second cocaine session (after selegiline),significantly different (lower)
same,Total Amount of MHPG-S Excreted in the 24 Hour Urine Collection,"noradrenergic tone; Day 4–5, 0–24 hr Postselegiline",1.43 ± 0.40 mg
same,Total Amount of MHPG-S Excreted in the 24 Hour Urine Collection,noradrenergic tone; Day 11–12 Selegiline Phase 1st Day After Cocaine,1.09 ± 0.23 mg
same,Total Amount of MHPG-S Excreted in the 24 Hour Urine Collection,noradrenergic tone; Day 12–13 Selegiline Phase 2nd Day After Cocaine,1.07 ± 0.40 mg
same,Total Amount of MHPG-S Excreted in the 24 Hour Urine Collection,"noradrenergic tone; Day 13–14 Selegiline Phase 3rd Day After Cocaine, no patch applied at 9 AM on Day 14",1.01 ± 0.33 mg
same,Adverse events,"[5]; cocaine-d5 IV 2.5 mg/kg over 4 hours, 2.5 mg/kg",One subject reported erectile dysfunction; also recorded: One subject experienced anxiety and one reported insomnia
same,Cardiovascular adverse effects (orthostatic vital signs and cardiovascular monitoring),[5]; selegiline maintenance phase,no adverse cardiovascular effects
"CN[C@H](C)Cc1ccccc1 [l-Methamphetamine, l-methamphetamine]",Excreted in the 24 Hour Urine,[2]; [9],6.26 ± 2.28
same,Excreted in the 24 Hour Urine,[2]; [10],8.51 ± 5.69
same,Excreted in the 24 Hour Urine,[2]; [11],4.83 ± 1.55
same,Trough plasma concentrations over time,[6],increased over time
